Experimental data published in the supplement of paper PMC9663587.

Key:
[1] = compound: CC1(CCN(CC1)C2=CN=C(C(=N2)N)C3=C(C(=CC=C3)Cl)Cl)N [SHP099]
[2] = compound: O=C(CCCCCCC(=O)Nc1ccccc1)NO [Vorinostat]
[3] = compound: CCN1CCN(Cc2ccc(Nc3ncc(F)c(-c4cc(F)c5nc(C)n(C(C)C)c5c4)n3)nc2)CC1
[4] = compound: CCc1cnn2c(NCc3ccc[n+]([O-])c3)cc(N3CCCC[C@H]3CCO)nc12
[5] = compound: CC(=O)O[C@H]1C(=O)[C@@]2(C)[C@H]([C@H](OC(=O)c3ccccc3)[C@]3(O)C[C@H](OC(=O)[C@H](O)[C@@H](NC(=O)c4ccccc4)c4ccccc4)C(C)=C1C3(C)C)[C@]1(OC(C)=O)CO[C@@H]1C[C@@H]2O [Paclitaxel]
[6] = compound: CC(=O)c1c(C)c2cnc(Nc3ccc(N4CCN(CCOCCOCCOCCNC(=O)COc5cccc6c5C(=O)N(C5CCC(=O)NC5=O)C6=O)CC4)cn3)nc2n(C2CCCC2)c1=O [BSJ-03-123]
[7] = compound: Nc1cc(C(F)(F)F)c(-c2cc(N3CCOCC3)nc(N3CCOCC3)n2)cn1 [Buparlisib/NVP-BKM120]
[8] = compound: NC1(C(=O)N[C@@H](CCO)c2ccc(Cl)cc2)CCN(c2nc[nH]c3nccc2-3)CC1 [AZD5363]
[9] = compound: COc1cc2nccc(Oc3ccc(NC(=O)C4(C(=O)Nc5ccc(F)cc5)CC4)cc3)c2cc1OC [Cabozantinib]
[10] = compound: CC(=O)c1c(C)c2cnc(Nc3ccc(N4CCNCC4)cn3)nc2n(C2CCCC2)c1=O; assay: GR value, 72 h; higher = faster growth (1 = untreated, <0 = killing);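 note: breast cancer and non-malignant breast epithelial lines, nine half-log doses, viable cells counted by Hoechst and LIVE/DEAD dye imaging versus time-zero plates and DMSO controls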
[11] = compound: CN1CC[C@H](c2c(O)cc(O)c3c(=O)cc(-c4ccccc4Cl)oc23)[C@H](O)C1 [Flavopiridol]; assay: as above
[12] = compound: CCN1CCN(Cc2ccc(Nc3ncc(F)c(-c4cc(F)c5nc(C)n(C(C)C)c5c4)n3)nc2)CC1; assay: as above
[13] = compound: CN(C)C/C=C/C(=O)Nc1ccc(C(=O)N2CCC[C@@H](Nc3ncc(Cl)c(-c4c[nH]c5ccccc45)n3)C2)cc1 [THZ531]; assay: as above
[14] = compound: C=CC(=O)Nc1ccc(C(=O)Nc2[nH]nc3c2CN(C(=O)N[C@H](CN(C)C)c2ccccc2)C3(C)C)cc1 [YKL-5-124]; assay: as above
[15] = compound: CN(C)C/C=C/C(=O)Nc1ccc(C(=O)Nc2cccc(Nc3ncc(Cl)c(-c4c[nH]c5ccccc45)n3)c2)cc1 [THZ1]; assay: as above
[16] = compound: CCc1cnn2c(NCc3ccc[n+]([O-])c3)cc(N3CCCC[C@H]3CCO)nc12; assay: as above
[17] = compound: CN(C)C(=O)c1cc2cnc(Nc3ccc(N4CCNCC4)cn3)nc2n1C1CCCC1 [LEE011/Ribociclib]; assay: as above
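Throughout, for GR50, 72 h: breast cancer and non-malignant breast epithelial cell lines, Deep Dye Drop or Dye Drop imaging, nine half-log doses, GR normalized to time-zero plates and DMSO-only controls.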

MGH312
GR50, 72 h [1]: > 10 µM
GR50, 72 h [2]: 0.799 µM
GR50, 72 h [3]: 2.43 µM
GR50, 72 h [4]: 0.0108 µM
GR50, 72 h [5]: 0.00266 µM
GR50, 72 h [6]: 4.41 µM
GR50, 72 h [7]: 0.347 µM
GR50, 72 h [8]: < 0.001 µM
GR50, 72 h [9]: 6.89 µM
GR value ([10]; 0.0003162 µM): 1.2 GR
GR value ([10]; 0.001 µM): 1.09 GR
GR value ([10]; 0.003162 µM): 1.2 GR
GR value ([10]; 0.01 µM): 1.04 GR
GR value ([10]; 0.03162 µM): 1.09 GR
GR value ([10]; 0.1 µM): 1.21 GR
GR value ([10]; 0.3162 µM): 1.11 GR
GR value ([10]; 1 µM): 1.18 GR
GR value ([10]; 3.162 µM): 1.04 GR
GR value ([11]; 0.0001 µM): 1.11 GR
GR value ([11]; 0.0003162 µM): 1.12 GR
GR value ([11]; 0.001 µM): 0.95 GR
GR value ([11]; 0.003162 µM): 0.74 GR
GR value ([11]; 0.01 µM): 0.921 GR
GR value ([11]; 0.03162 µM): 0.947 GR
GR value ([11]; 0.1 µM): 0.503 GR
GR value ([11]; 0.3162 µM): -0.521 GR
GR value ([11]; 1 µM): -0.945 GR
GR value ([12]; 0.001 µM): 1.06 GR
GR value ([12]; 0.003162 µM): 1.17 GR
GR value ([12]; 0.01 µM): 1.15 GR
GR value ([12]; 0.03162 µM): 1.12 GR
GR value ([12]; 0.1 µM): 0.975 GR
GR value ([12]; 0.3162 µM): 1.03 GR
GR value ([12]; 1 µM): 0.836 GR
GR value ([12]; 3.162 µM): 0.308 GR
GR value ([12]; 10 µM): -0.466 GR
GR value ([13]; 0.0001 µM): 1.09 GR
GR value ([13]; 0.0003162 µM): 1.17 GR
GR value ([13]; 0.001 µM): 0.736 GR
GR value ([13]; 0.003162 µM): 1.06 GR
GR value ([13]; 0.01 µM): 1.32 GR
GR value ([13]; 0.03162 µM): 0.538 GR
GR value ([13]; 0.1 µM): -0.928 GR
GR value ([13]; 0.3162 µM): -0.947 GR
GR value ([13]; 1 µM): -0.909 GR
GR value ([14]; 0.001 µM): 0.624 GR
GR value ([14]; 0.003162 µM): 0.384 GR
GR value ([14]; 0.01 µM): 0.182 GR
GR value ([14]; 0.03162 µM): 0.299 GR
GR value ([14]; 0.1 µM): 0.104 GR
GR value ([14]; 0.3162 µM): 0.0051 GR
GR value ([14]; 1 µM): -0.083 GR
GR value ([14]; 3.162 µM): -0.264 GR
GR value ([14]; 10 µM): -0.924 GR
GR value ([15]; 0.0001 µM): 1.22 GR
GR value ([15]; 0.0003162 µM): 0.923 GR
GR value ([15]; 0.001 µM): 0.962 GR
GR value ([15]; 0.003162 µM): 0.662 GR
GR value ([15]; 0.01 µM): 0.287 GR
GR value ([15]; 0.03162 µM): -0.892 GR
GR value ([15]; 0.1 µM): -0.905 GR
GR value ([15]; 0.3162 µM): -0.92 GR
GR value ([15]; 1 µM): -0.934 GR
GR value ([16]; 0.0001 µM): 0.917 GR
GR value ([16]; 0.0003162 µM): 1.1 GR
GR value ([16]; 0.001 µM): 1.09 GR
GR value ([16]; 0.003162 µM): 1.04 GR
GR value ([16]; 0.01 µM): 0.584 GR
GR value ([16]; 0.03162 µM): -0.846 GR
GR value ([16]; 0.1 µM): -0.927 GR
GR value ([16]; 0.3162 µM): -0.951 GR
GR value ([16]; 1 µM): -0.949 GR
GR value ([17]; 0.001 µM): 1.21 GR
GR value ([17]; 0.003162 µM): 1.13 GR
GR value ([17]; 0.01 µM): 1.08 GR
GR value ([17]; 0.03162 µM): 1.21 GR
GR value ([17]; 0.1 µM): 0.945 GR
GR value ([17]; 0.3162 µM): 0.964 GR
GR value ([17]; 1 µM): 0.894 GR
GR value ([17]; 3.162 µM): 0.89 GR
GR value ([17]; 10 µM): 1.33 GR
